From patent publication US20260373038A1, “A PERSONAL CARE COMPOSITION” (Conopco, Inc., d/b/a UNILEVER, priority 2022, published 2026)

Tested on: collagen type I alpha I chain (COL1A1) gene, normal human dermal fibroblasts (NHDF)
Test: Fold change in gene expression of COL1A1 in normal human dermal fibroblasts (qPCR, normalized to ACTB)
Assay type: cell-based
Details: 48 hours, relative to blank control (1.0)
Procedure: The normal human dermal fibroblasts (NHDF) (Biocell, Xi'an, China, Lot: Fb20081902) were incubated in medium together with or without actives for 48 hours. After incubation, the total RNA for each NHDF was extracted using RNAex Pro reagent (Accurate Biotechnology, Cat: AG21102) according to manufacturer's protocol.
The extracted RNA was quantified using Nanodrop spectrometer (Thermo Fisher Scientific, Waltham, MA, US) and reverse transcribed to generate the template cDNA using the Evo M-MLV RT Premix for qPCR (Accurate Biotechnology, Cat: AG11706) according to manufacturer's protocol. Gene expression of COL1A1 gene was analyzed by polymerase chain reaction (PCR) using SYBR® Green Premix Pro Taq HS qPCR Kit (Accurate Biotechnology, AG11701). The actin beta (ACTB) gene was selected as the housekeeping gene and all data on relative expression of the target genes was normalized to ACTB gene. The fold changes in expression were calculated relative to the blank control (medium having no active).

CCC(=O)OC/C=C(C)/C=C/C=C(C)/C=C/C1=C(C)CCCC1(C)C [RP, Retinyl propionate]
Fold change of COL1A1 expression (1 μM of RP (group B)): 1.4 fold change | Fold change of COL1A1 expression (10 μM of RP (group E)): 1.5 fold change

Lysine carboxymethyl cysteinate [LCC]
Fold change of COL1A1 expression (5 μM of LCC (group D)): 1.4 fold change | Fold change of COL1A1 expression (10 μM of LCC (group G)): 1.5 fold change | Fold change of COL1A1 expression (50 μM of LCC (group A)): 1.3 fold change
